Assay results: patent US11001590B2, “Pyrazolopyrimidine derivatives” (BAYER ANIMAL HEALTH GMBH, priority 2016, dated 2021)

What was measured:
[1] = tested on: Dirofilaria immitis microfilariae; assay: In vitro assay 3: Dirofilaria immitis microfilariae (DIROIM L1), motility; conditions: 72 h, reduction of motility vs negative control, 72 h incubation
[2] = tested on: Dirofilaria immitis third-stage larvae; assay: In vitro assay 4: Dirofilaria immitis (DIROIM L4), motility of larvae; conditions: 72 h
[3] = log P by HPLC on reversed phase columns (Method L0; [a] acidic, [b] neutral range)
Procedure: Calibration was done with straight-chain alkan-2-ones (with 3 to 16 carbon atoms) with known log P values (measurement of log P values using retention times with linear interpolation between successive alkanones). Lambda-max-values were determined using UV-spectra from 200 nm to 400 nm and the peak values of the chromatographic signals.

C. elegans Slo-1a = C. elegans Slo-1a (Caenorhabditis elegans, UniProt Q95V25); assay: In vitro assay 1: C. elegans Slo-1a, action at a recombinant C. elegans CHO cell line (membrane potential measurement)
Sequence of C. elegans Slo-1a (Q95V25 whole entry): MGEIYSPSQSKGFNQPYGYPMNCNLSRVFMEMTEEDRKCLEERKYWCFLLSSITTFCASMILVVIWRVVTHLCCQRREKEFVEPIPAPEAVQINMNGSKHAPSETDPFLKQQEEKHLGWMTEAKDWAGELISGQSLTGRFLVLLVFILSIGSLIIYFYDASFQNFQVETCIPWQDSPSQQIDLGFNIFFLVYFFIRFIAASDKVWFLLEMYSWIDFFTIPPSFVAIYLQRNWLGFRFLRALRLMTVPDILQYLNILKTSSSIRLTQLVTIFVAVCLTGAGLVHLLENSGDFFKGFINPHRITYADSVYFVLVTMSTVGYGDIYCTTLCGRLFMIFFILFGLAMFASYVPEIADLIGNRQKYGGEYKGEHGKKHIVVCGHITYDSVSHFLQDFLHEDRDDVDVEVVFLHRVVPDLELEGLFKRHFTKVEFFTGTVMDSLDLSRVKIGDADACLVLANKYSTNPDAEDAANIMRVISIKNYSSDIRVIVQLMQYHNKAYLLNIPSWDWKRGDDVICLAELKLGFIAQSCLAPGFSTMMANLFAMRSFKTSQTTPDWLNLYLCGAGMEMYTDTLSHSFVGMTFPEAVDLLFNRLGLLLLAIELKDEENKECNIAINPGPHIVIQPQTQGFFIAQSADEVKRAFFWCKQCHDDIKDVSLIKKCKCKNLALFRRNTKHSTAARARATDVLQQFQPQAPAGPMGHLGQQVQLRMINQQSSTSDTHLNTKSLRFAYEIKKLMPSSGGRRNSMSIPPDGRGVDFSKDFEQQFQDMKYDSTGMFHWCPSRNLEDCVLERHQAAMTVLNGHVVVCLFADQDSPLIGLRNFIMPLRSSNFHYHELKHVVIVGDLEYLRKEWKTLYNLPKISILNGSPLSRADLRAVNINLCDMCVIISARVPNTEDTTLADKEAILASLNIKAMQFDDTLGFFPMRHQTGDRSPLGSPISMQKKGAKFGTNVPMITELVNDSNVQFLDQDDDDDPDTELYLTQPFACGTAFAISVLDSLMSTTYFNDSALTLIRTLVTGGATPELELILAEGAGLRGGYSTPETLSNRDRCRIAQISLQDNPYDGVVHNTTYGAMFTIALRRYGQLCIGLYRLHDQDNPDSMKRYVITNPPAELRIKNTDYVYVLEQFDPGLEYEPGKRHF

[4] = tested on: Litomosoides sigmodontis third-stage larvae; assay: In vitro assay 7: Litomosoides sigmodontis L3 (LTMOSI), motility; conditions: 72 h, reduction of motility vs negative control, 72 h incubation
Procedure: In Vitro Assay 7: Litomosoides Siqmodontis L3 (LTMOSI)
10 Litomosoides sigmodontis third-stage larvae, which were freshly isolated from the pleural cavity of an infected rodent, were added to wells of a microtitre plate containing a nutrient medium and the test compound in DMSO. Compounds were tested in concentration-response assay in duplicate. Larvae exposed to DMSO and no test compounds were used as negative controls. Larvae were evaluated after 72 h of incubation with the compound. Efficacy was determined as the reduction of motility in comparison to the negative control. Based on the evaluation of a wide concentration range, concentration-response curves as well as ECso-values were calculated.

Structure (SMILES) | EC50 [1] [µg/mL] | EC50 [2] [µg/mL] | chromatographic logP [3] | EC50 (C. elegans Slo-1a) [nM] | EC50 [4] [µg/mL]
Cc1nn2c(C(C)C)c(C(=O)N[C@H]3CCc4ccccc43)cnc2c1-c1cccc(C(F)(F)F)c1 [Example 4] | < 1 | < 1 | 5.3 | 31.6 | 
Cc1nn2c(C(C)C)c(C(=O)N[C@H]3CCc4ccccc43)cnc2c1-c1cccc(F)c1Cl [Example 165] | < 0.1 | < 0.1 | 4.74 | 2 | 
Cc1nn2c(C(C)C)c(C(=O)N[C@H]3CCCc4ccccc43)cnc2c1-c1cc(Cl)ccc1Cl [Example 172] | < 0.1 | < 0.1 | 5.64 | 10 | 
Cc1nn2c(C(C)C)c(C(=O)N[C@H]3CCc4ccccc43)cnc2c1-c1cccc(Cl)c1 [Example 287] | < 1 |  | 5.19 | 15.8 | < 0.1
COc1cccc(-c2c(C)nn3c(C(C)C)c(C(=O)N[C@H]4CCc5ccccc54)cnc23)c1 [Example 289] | < 1 |  | 4.51 | 15.8 | < 0.1
COCc1cccc(-c2c(C)nn3c(C(C)C)c(C(=O)N[C@H]4CCCc5ccccc54)cnc23)c1 [Example 344] | < 1 | < 1 | 4.74 | 7.94 | 
Cc1nn2c(C3CC3)c(C(=O)N[C@H]3CCc4ccccc43)cnc2c1-c1cccc(N(C)C)c1 [Example 348] | < 1 | < 1 | 2.98 | 3.98 | 
COCc1cccc(-c2c(C)nn3c(C4CC4)c(C(=O)N[C@H]4CCc5ccccc54)cnc23)c1 [Example 350] | < 0.1 | < 1 | 3.65 | 10 | 
Cc1nn2c(C3CC3)c(C(=O)N[C@H]3CCc4ccccc43)cnc2c1-c1ccc(F)c(F)c1 [Example 358] | < 1 | < 1 | 4.1 | 12.6 | 
Cc1nn2c(C(C)C)c(C(=O)N[C@H]3CCc4ccccc43)cnc2c1-c1cccc(N2CC(F)(F)C2)c1 [Example 364] | < 1 | < 1 | 4.89 | 10 | 
CC(C)c1c(C(=O)N[C@H]2CCc3ccccc32)cnc2c(-c3cccc(N(C)C)c3)c(C(F)F)nn12 [Example 427] | < 10 |  | 4.3 | 20 | 
COc1cccc(-c2c(C(F)F)nn3c(C(C)C)c(C(=O)N[C@H]4CCc5ccccc54)cnc23)c1 [Example 428] | < 0.1 |  | 4.42 | 25.1 | 
CC(C)c1c(C(=O)N[C@H]2CCc3ccccc32)cnc2c(-c3cccc(F)c3)c(C(F)F)nn12 [Example 429] | < 10 |  | 4.57 | 39.8 | 
COCc1cccc(-c2c(C(F)F)nn3c(C(C)C)c(C(=O)N[C@H]4CCc5ccccc54)cnc23)c1 [Example 430] | < 1 |  | 4.36 | 15.8 | 
CC(C)c1c(C(=O)N[C@H]2CCc3ccccc32)cnc2c(-c3cccc(OC(F)(F)F)c3)c(C(F)F)nn12 [Example 431] | < 10 |  | 5.18 | 6.31 | 
CC(C)c1c(C(=O)N[C@H]2CCc3ccccc32)cnc2c(-c3cccc(C(F)(F)F)c3)c(C(F)F)nn12 [Example 433] | < 10 |  | 5.03 | 10 | 
CC(C)c1c(C(=O)N[C@H]2CCc3ccccc32)cnc2c(-c3c(F)cccc3F)c(C(F)F)nn12 [Example 434] | < 0.1 | < 0.1 | 4.23 | 7.94 | 
CC(C)c1c(C(=O)N[C@H]2CCc3ccccc32)cnc2c(-c3ccccc3Cl)c(C(F)F)nn12 [Example 435] | < 0.1 |  | 4.43 | 25.1 | 
COc1cccc(-c2c(C)nn3c(C4CC4)c(C(=O)N[C@H]4CCCc5ccccc54)cnc23)c1 [Example 439] | < 0.1 |  | 4.03 | 6.31 | 
Cc1nn2c(C3CC3)c(C(=O)N[C@H]3CCc4ccccc43)cnc2c1-c1cccc(N2CC(F)(F)C2)c1 [Example 441] | < 1 |  | 4.16 | 10 | 
Cc1nn2c(C(C)C)c(C(=O)N[C@H]3CCc4ccccc43)cnc2c1-c1cccc(S(=O)(=O)C2CC2)c1 [Example 443] | < 10 |  | 3.99 | 50.1 | 
Cc1nn2c(C(C)C)c(C(=O)N[C@H]3CCOc4ccccc43)cnc2c1-c1cccc(N2CC(C#N)C2)c1 [Example 444] | < 10 |  | 3.91 | 15.8 | 
Cc1nn2c(C3CC3)c(C(=O)N[C@H]3CCOc4ccccc43)cnc2c1-c1c(F)cccc1F [Example 445] | < 0.1 | < 0.1 | 3.43 | 2 | 
